Values of other authors in patent US20090155358A1, “PHARMACEUTICAL COMPOSITIONS OF SHORT-ACTING HYPNOTIC AGENTS IN MODIFIED-RELEASE FORMS AND THE […] PREPARE THE MENTIONED FORMULATION” (Gador S.A., priority 2005, published 2009).
Structures can show the parent of a compound that is named as a salt.

How the values were obtained:
BZ1 receptor = target: T1, BZ1 receptor (Homo sapiens, UniProt P14867+P18507); conditions: in vitro
T1 sequence (P14867 28-456): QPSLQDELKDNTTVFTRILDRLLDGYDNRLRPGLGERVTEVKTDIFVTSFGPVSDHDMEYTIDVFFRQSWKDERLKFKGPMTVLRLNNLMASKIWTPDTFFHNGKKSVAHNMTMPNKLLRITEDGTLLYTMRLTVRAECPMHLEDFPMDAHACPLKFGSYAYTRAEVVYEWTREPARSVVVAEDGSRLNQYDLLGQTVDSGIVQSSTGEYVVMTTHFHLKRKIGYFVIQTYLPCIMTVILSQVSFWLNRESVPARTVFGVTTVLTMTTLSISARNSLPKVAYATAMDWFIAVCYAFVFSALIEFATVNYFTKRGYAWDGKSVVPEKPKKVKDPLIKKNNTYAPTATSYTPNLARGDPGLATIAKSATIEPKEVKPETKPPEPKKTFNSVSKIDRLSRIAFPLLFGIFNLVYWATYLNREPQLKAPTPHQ
T1 sequence (P18507 40-467 limits assumed): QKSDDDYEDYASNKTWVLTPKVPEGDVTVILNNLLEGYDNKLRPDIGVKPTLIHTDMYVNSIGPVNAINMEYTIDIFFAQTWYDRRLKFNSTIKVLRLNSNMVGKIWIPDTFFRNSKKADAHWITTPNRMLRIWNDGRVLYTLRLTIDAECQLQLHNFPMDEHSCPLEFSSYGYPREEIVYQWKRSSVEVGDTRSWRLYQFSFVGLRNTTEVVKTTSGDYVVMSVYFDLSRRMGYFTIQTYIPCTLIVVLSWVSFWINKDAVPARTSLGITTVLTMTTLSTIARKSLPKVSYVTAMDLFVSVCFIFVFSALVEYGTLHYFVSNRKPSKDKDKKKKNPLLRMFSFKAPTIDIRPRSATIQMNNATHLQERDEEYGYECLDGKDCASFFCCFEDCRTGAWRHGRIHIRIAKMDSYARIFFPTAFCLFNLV
T1 sequence (P47870 25-512 partner limits assumed): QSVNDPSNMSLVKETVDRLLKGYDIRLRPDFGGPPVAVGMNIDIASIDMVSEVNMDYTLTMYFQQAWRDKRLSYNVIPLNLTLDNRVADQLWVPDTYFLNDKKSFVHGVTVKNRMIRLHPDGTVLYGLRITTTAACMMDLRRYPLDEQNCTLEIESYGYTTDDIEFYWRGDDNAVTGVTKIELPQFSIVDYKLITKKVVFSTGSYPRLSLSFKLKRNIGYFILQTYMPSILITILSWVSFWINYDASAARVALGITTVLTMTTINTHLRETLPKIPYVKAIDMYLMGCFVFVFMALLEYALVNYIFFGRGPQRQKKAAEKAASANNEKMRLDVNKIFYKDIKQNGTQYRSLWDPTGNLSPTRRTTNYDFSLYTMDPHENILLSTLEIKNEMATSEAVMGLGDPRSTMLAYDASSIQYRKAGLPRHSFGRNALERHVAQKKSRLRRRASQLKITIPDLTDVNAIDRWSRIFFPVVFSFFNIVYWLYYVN

Compound | affinity for BZ1 receptor, subunits α1/α5 (BZ1 receptor) | solubility in alcohol (alcohol) | solubility in propylene glycol (propylene glycol) | solubility in water (water)
Cc1ccc(-c2nc3ccc(C)cn3c2CC(=O)N(C)C)cc1 [Zolpidem, N,N,6-trimethyl-2-p-toyl-imidazo[1,2-a]pyridine-3-acetamide] | large affinity |  |  | 
Cc1ccc(-c2nc3ccc(C)cn3c2CC(=O)N(C)C)cc1 [Zolpidem tartrate, N,N,6-trimethyl-2-p-toyl-imidazo[1,2-a]pyridine-3-acetamide] |  | sparingly soluble | sparingly soluble | sparingly soluble
